Assay results as given in patent US20220054513A1, “COMBINATION COMPOSITIONS COMPRISING A BETA-LACTAMASE INHIBITOR” (VenatoRx Pharmaceuticals, Inc., priority 2018, published 2022).
Where two headings read alike, the source gives them in different places.

Experiments:
[1] = system: β-lactamase expressing E. coli; test: broth microdilution MIC of cefiderocol +/- Compound 1, E. coli strains; type: cell-based; details: Escherichia coli
[2] = system: β-lactamase expressing P. mirabilis; test: broth microdilution MIC of cefiderocol +/- Compound 1, P. mirabilis strain; type: cell-based; details: Proteus mirabilis, read-out: Minimum inhibitory concentration (MIC), P. mirabilis CDC-159 (NDM)
[3] = system: metallo- and serine-β-lactamase expressing CRE; test: checkerboard assay of cefiderocol and Compound 1 in IDM, 22 CRE isolates; type: cell-based, Enterobacteriaceae; details: Compound 1 0 μg/mL
[4] = system: carbapenem resistant Enterobacteriaceae (CRE); test: MIC of cefiderocol with Compound 1 vs approved BL/BLI combinations, 120 CRE isolates
Method: A panel of 30 strains of characterized Enterobacteriaceae isolates produce Ambler class A, B, C, and D β-lactamase were used. […] IDM was prepared by adding 100 g of chelex (a chelating agent) to 1 L of sterile CAMBH and stirring for 2 hours. The chelex treated media was then filtered using a 0.2 μm filter and divalent Ca, Mg, and Zn are added back at relevant concentrations. The pH was adjusted to 7.2 using HCl and the media was filtered again to ensure sterility. This created a medium that was devoid of iron but retains appropriate concentration of other cations and was necessary for evaluating the activity of cefiderocol originating from its uptake by bacterial iron transporters. Bacteria strains were grown for 3-5 hours in CAMHB and IDM. Cefiderocol was added either to a microtiter plate in 2-fold serial dilutions in CAMHB and in parallel in IDM. […] Once the test articles were added the plates were inoculated according to CLSI broth microdilution method.
The challenge set of organisms consisted of a variety of Enterobacteriaceae species expressing IMP (n=30), NDM (30), VIM (15), KPC (n=30), and AmpC (n=15).

In the case of `CC(C)(O/N=C(\C(=O)N[C@@H]1C(=O)N2C(C(=O)[O-])=C(C[N+]3(CCNC(=O)c4ccc(O)c(O)c4Cl)CCCC3)CS[C@H]12)c1csc(N)n1)C(=O)O` [FDC, cefiderocol], the MIC ([1]; read-out: Minimum inhibitory concentration (MIC), E. coli 128 (AmpC, SHV-12, TOHO-2, TEM-1), IDM) is reported as 0.5 µg/mL, the MIC ([1]; read-out: Minimum inhibitory concentration (MIC), E. coli 128 (AmpC, SHV-12, TOHO-2, TEM-1), MHBII) is reported as 2 µg/mL and the MIC ([1]; read-out: Minimum inhibitory concentration (MIC), E. coli 3073 (AmpC, CTX-M3), IDM) is reported as 0.5 µg/mL. For the same compound, the MIC ([1]; read-out: Minimum inhibitory concentration (MIC), E. coli 3073 (AmpC, CTX-M3), MHBII) was 8 µg/mL, the MIC ([1]; read-out: Minimum inhibitory concentration (MIC), E. coli 3327 (TEM-1, SHV-12), IDM) was 0.125 µg/mL and the MIC ([1]; read-out: Minimum inhibitory concentration (MIC), E. coli 3327 (TEM-1, SHV-12), MHBII) was 0.5 µg/mL. For the same compound, the MIC ([1]; read-out: Minimum inhibitory concentration (MIC), E. coli 786978 (KPC 2), IDM) was 0.25 µg/mL, the MIC ([1]; read-out: Minimum inhibitory concentration (MIC), E. coli 786978 (KPC 2), MHBII) was 4 µg/mL and the MIC ([1]; read-out: Minimum inhibitory concentration (MIC), E. coli 787112 (OXA 48), IDM) was 64 µg/mL. It also gave an MIC ([1]; read-out: Minimum inhibitory concentration (MIC), E. coli 787112 (OXA 48), MHBII) of 64 µg/mL, an MIC ([1]; read-out: Minimum inhibitory concentration (MIC), E. coli CDC-61 (KPC-3 TEM-1), IDM) of 0.125 µg/mL and an MIC ([1]; read-out: Minimum inhibitory concentration (MIC), E. coli CDC-61 (KPC-3 TEM-1), MHBII) of 0.25 µg/mL. It also gave an MIC ([1]; read-out: Minimum inhibitory concentration (MIC), E. coli CDC-114 (KPC-3), IDM) of 0.5 µg/mL, an MIC ([1]; read-out: Minimum inhibitory concentration (MIC), E. coli CDC-114 (KPC-3), MHBII) of 4 µg/mL and an MIC ([1]; read-out: Minimum inhibitory concentration (MIC), E. coli CDC-150 (NDM-5), IDM) of 4 µg/mL. For the same compound, the MIC ([1]; read-out: Minimum inhibitory concentration (MIC), E. coli CDC-150 (NDM-5), MHBII) was 128 µg/mL, the MIC ([1]; read-out: Minimum inhibitory concentration (MIC), E. coli GUE 131 (NDM-1), IDM) was 1 µg/mL and the MIC ([1]; read-out: Minimum inhibitory concentration (MIC), E. coli GUE 131 (NDM-1), MHBII) was 2 µg/mL. For the same compound, the MIC ([1]; read-out: Minimum inhibitory concentration (MIC), E. coli SI-151 (VIM-1), IDM) was 0.125 µg/mL, the MIC ([1]; read-out: Minimum inhibitory concentration (MIC), E. coli SI-151 (VIM-1), MHBII) was 0.5 µg/mL and the MIC ([1]; read-out: Minimum inhibitory concentration (MIC), E. coli SI-152 (NDM-1), IDM) was 0.125 µg/mL. It also gave an MIC ([1]; read-out: Minimum inhibitory concentration (MIC), E. coli SI-152 (NDM-1), MHBII) of 0.125 µg/mL, an MIC ([1]; read-out: Minimum inhibitory concentration (MIC), E. coli SI-155S (VIM-1), IDM) of 1 µg/mL and an MIC ([1]; read-out: Minimum inhibitory concentration (MIC), E. coli SI-155S (VIM-1), MHBII) of 2 µg/mL. It also gave an MIC ([1]; read-out: Minimum inhibitory concentration (MIC), E. coli SI-P026TC (CMY-2, TEM-1), IDM) of 0.125 µg/mL, an MIC ([1]; read-out: Minimum inhibitory concentration (MIC), E. coli SI-P026TC (CMY-2, TEM-1), MHBII) of 0.25 µg/mL and an MIC ([2]; IDM) of 4 µg/mL. The MIC ([2]; MHBII) was 32 µg/mL, the “% of strains inhibited” value ([3]; cefiderocol 0.06 μg/mL) was 5% and the “% of strains inhibited” value ([3]; cefiderocol 0.125 μg/mL) was 5%. For the same compound, the “% of strains inhibited” value ([3]; cefiderocol 0.25 μg/mL) was 5%, the “% of strains inhibited” value ([3]; cefiderocol 0.5 μg/mL) was 15% and the “% of strains inhibited” value ([3]; cefiderocol 1 μg/mL) was 20%. The “% of strains inhibited” value ([3]; cefiderocol 2 μg/mL) was 60%, the “% of strains inhibited” value ([3]; cefiderocol 4 μg/mL) was 75% and the “% of strains inhibited” value ([3]; cefiderocol 8 μg/mL) was 90%. For the same compound, the “% of strains inhibited” value ([3]; cefiderocol 16 μg/mL) was 90%, the “% of strains inhibited” value ([3]; cefiderocol 32 μg/mL) was 95% and the MIC [4] was 0.059 µg/mL. The MIC50 [4] was 1 µg/mL, the MIC90 [4] was 8 µg/mL and the MIC ([4]; Enterobacter cloacae, Enterobacter cloacae 1207515 (NDM-6), IDM) was 64 µg/mL. The MIC ([4]; Enterobacter cloacae, Enterobacter cloacae 1212159 (NDM-6), IDM) was 16 µg/mL, the MIC ([4]; Enterobacter cloacae, Enterobacter cloacae 1212160 (NDM-6), IDM) was 16 µg/mL and the MIC ([4]; Enterobacter cloacae, Enterobacter cloacae 1256568 (VIM-23), IDM) was 0.125 µg/mL. For the same compound, the MIC ([4]; Enterobacter cloacae, Enterobacter cloacae 1284042 (VIM-5), IDM) was 8 µg/mL, the MIC ([4]; Enterobacter cloacae, Enterobacter cloacae 1284044 (VIM-5), IDM) was 4 µg/mL and the MIC ([4]; Enterobacter cloacae, Enterobacter cloacae 1284065 (VIM-5), IDM) was 4 µg/mL. The MIC ([4]; Enterobacter cloacae, Enterobacter cloacae 1284066 (VIM-5), IDM) was 32 µg/mL, the MIC ([4]; Enterobacter cloacae, Enterobacter cloacae 1455568 (NDM-4), IDM) was 16 µg/mL and the MIC ([4]; Enterobacter cloacae, Enterobacter cloacae 1488830 (IMP-14), IDM) was 2 µg/mL. It also gave an MIC ([4]; Enterobacter cloacae, Enterobacter cloacae 1490669 (IMP-4), IDM) of 0.25 µg/mL, an MIC ([4]; Enterobacter cloacae, Enterobacter cloacae 1590932 (VIM-4), IDM) of 2 µg/mL and an MIC ([4]; Enterobacter cloacae, Enterobacter cloacae 1703478 (IMP-4), IDM) of 0.125 µg/mL. The MIC ([4]; Enterobacter cloacae, Enterobacter cloacae IHMA 908146 (ACT-1, CTX-M-22, IMP), IDM) was 0.125 µg/mL, the MIC ([4]; Escherichia coli, Escherichia coli 128 (AmpC, SHV-12, TOHO-2, TEM-1), IDM) was 0.5 µg/mL and the MIC ([4]; Escherichia coli, Escherichia coli 233 (AmpC, SHV-2, KPC-3, CTX-M-15 and TEM-1), IDM) was 1 µg/mL. It also gave an MIC ([4]; Escherichia coli, Escherichia coli 469 (AmpC, SHV-12, TEM-1), IDM) of 0.5 µg/mL, an MIC ([4]; Escherichia coli, Escherichia coli 3073 (AmpC, CTX-M-3), IDM) of 1 µg/mL and an MIC ([4]; Escherichia coli, Escherichia coli 3102 (AmpC, CTX-M-15, TEM-1), IDM) of 0.059 µg/mL. For the same compound, the MIC ([4]; Escherichia coli, Escherichia coli 54321 (AmpC, CTX-M-15, TEM-1), IDM) was 2 µg/mL, the MIC ([4]; Escherichia coli, Escherichia coli 64167 (AmpC, TEM-1, GES-5), IDM) was 0.25 µg/mL and the MIC ([4]; Escherichia coli, Escherichia coli 786978 (KPC-2), IDM) was 0.5 µg/mL. The MIC ([4]; Escherichia coli, Escherichia coli 1266865 (NDM-5), IDM) was 8 µg/mL, the MIC ([4]; Escherichia coli, Escherichia coli 1275629 (VIM-23), IDM) was 0.5 µg/mL and the MIC ([4]; Escherichia coli, Escherichia coli 1275635 (VIM-23), IDM) was 0.5 µg/mL. The MIC ([4]; Escherichia coli, Escherichia coli 1371539 (NDM-6), IDM) was 2 µg/mL, the MIC ([4]; Escherichia coli, Escherichia coli 1424126 (NDM-5), IDM) was 128 µg/mL and the MIC ([4]; Escherichia coli, Escherichia coli 1438691 (NDM-5), IDM) was 16 µg/mL. The MIC ([4]; Escherichia coli, Escherichia coli 1438767 (NDM-5), IDM) was 128 µg/mL, the MIC ([4]; Escherichia coli, Escherichia coli 1468388 (IMP-59), IDM) was 2 µg/mL and the MIC ([4]; Escherichia coli, Escherichia coli CH1 (AmpC, TEM-1, CTX-M-15, SHV-5, SHV-1), IDM) was 0.25 µg/mL. It also gave an MIC ([4]; Escherichia coli, Escherichia coli EC15521A (AmpC, CMY-2, TEM-1), IDM) of 4 µg/mL, an MIC ([4]; Escherichia coli, Escherichia coli EC15522A (AmpC, CMY-2, TEM-1, CTX-M-15), IDM) of 0.059 µg/mL and an MIC ([4]; Escherichia coli, Escherichia coli J53 (SHV-5, AmpC, TEM-1), IDM) of 0.03 µg/mL. It also gave an MIC ([4]; Escherichia coli, Escherichia coli SI-LP505 (AmpC, CTX-M-14, TEM-1), IDM) of 0.5 µg/mL, an MIC ([4]; Escherichia coli, Escherichia coli SI-LP574 (AmpC, CTX-M-14, TEM-1), IDM) of 0.059 µg/mL and an MIC ([4]; Escherichia coli, Escherichia coli SI-P026 (AmpC, CMY-2, TEM-1), IDM) of 0.059 µg/mL. The MIC ([4]; Escherichia coli, Escherichia coli SI-Vr059 (AmpC, CTX-M-32 and TEM-1), IDM) was 2 µg/mL and the MIC ([4]; Klebsiella aerogenes, Enterobacter aerogenes 847438 (CTX-M-2, KPC), IDM) was 0.059 µg/mL.
